Results as given in patent US5008126A, “Long chain diol diesters as low calorie fat mimetics” (Nabisco Brands, Inc., priority 1989, dated 1991).

Assays:
[1] = in vitro digestibility (lipase hydrolysis, TLC densitometry); type: in vitro ADME, porcine; conditions: pig, pancreatic lipase; in three hours; 37° C., pH 7.1 phosphate buffer with cholic acid; read-out: hydrolyzed (extent of hydrolysis by lipase)
Procedure: (§1) This example outlines the procedure for estimating the in vitro digestibility of the long chain diol diesters of this invention.
(§2) 1. Buffer: A pH 7.1 phosphate buffer is prepared by dissolving 6.8 g. KH2 PO4 in 1 L. of millipore filtered water (to yield 0.05M phosphate). Fifty mg. Ca(NO3)2 and 5.0 g. cholic acid (Na salt, an ox bile isolate from Sigma) are added to give 300 microM Ca^++ and 0.5 % cholic acid in 0.05M phosphate. The pH is adjusted to approximately 7.1 with solid NaOH. Several drops of Baker "Resi-analyzed" toluene are added to prevent bacterial growth during storage at 3°-5° C.
(§3) 2. Lipase: About 15 mg./mL commercial porcine pancreatic lipase from U.S. Biochemical Corporation is dissolved in buffer.
(§4) 3. Substrates and Standards: A 1.0 mL volumetric flask is charged with an amount of lipid substrate calculated to give a concentration of 200 nanomoles per microliter in Baker "Resi-analyzed" toluene. (The proper concentration may be approximated by doubling the molecular weight of the lipid in question, dividing by 10, and diluting to the mark; this yields about 200 nanomoles per microliter.) This preparation affords the substrate to be used in the hydrolysis reactions. […]

[2] = caloric availability by in vivo animal feeding study (body weight gain); design: species or system male Sprague-Dawley rats; conditions: rats, diet of 50% fort and 21% test compound, 14 days; from weight gain versus corn oil base line
Source text: This example illustrates how the novel fat mimetics of this invention are screened for caloric availability by a carefully controlled in vivo animal feeding study.
An experimental relationship between total calories ingested and animal body weight gain is established by monitoring the body weight gain associated with consumption of a nutritionally balanced diet containing varying concentrations of a reference substance such as corn oil which has a known caloric availability. Correlations between total calories ingested and body weight gain are excellent (r=0.99).
Caloric availability of an unknown substance is evaluated by substituting a specific weight of the unknown substance for the reference substance and observing the body weight gain. The gain in body weight is equated to a total number of calories using the correlation previously established for the reference data. The estimated number of calories ingested are divided by the weight of unknown substance to give the apparent calories per gram for the unknown substance. Generally speaking, in these bioavailability studies, the degree of perianal pelt soiling correlates with reduced bioavailability.
The test animals are six-week-old male Sprague-Dawley rats obtained from the Portage, Mich. facility of the Charles River Laboratories, Inc. After acclimation for 15 days, the test duration is 14 days. […]

[3] = system: porcine pancreatic lipase; experiment: in vitro digestibility (lipase hydrolysis, TLC densitometry); type: in vitro ADME; conditions: in 10 minutes; 37° C., pH 7.1 phosphate buffer with cholic acid
Procedure: as §1, §2, §3, §4

| metabolised at 3 h [1] [%] | hydrolysis by lipase (in words) [3] | SMILES | caloric availability (kcal/gram upon being metabolized) [2] |
| --- | --- | --- | --- |
| ~20 | – | CCCCCCCC/C=C\CCCCCCCC(=O)OCC(CCCCCCCCCCCC)OC(=O)CCCCCCC/C=C\CCCCCCCC (stereo not drawn) [Example 1, 1,2 Tetradecane dioleate] | about 6.0 kcal/gram |
| – | substantially hydrolyzed | CCCCCCCC/C=C\CCCCCCCC(=O)OCC(COC(=O)CCCCCCC/C=C\CCCCCCCC)OC(=O)CCCCCCC/C=C\CCCCCCCC [triolein, reference compound] | – |
